From publication PMC5218480 (PLoS ONE, 2017)

Tested on: MV-4-11 cells
Experiment: Gene expression microarray analysis (Affymetrix PrimeView) and GSEA
Type: cell-based, human
Parameters: RFU PODN (11730768_x_at) / Fold change /veh PODN (11730768_x_at) / RFU LINC00158 (11744669_a_at) / Fold change /veh LINC00158 (11744669_a_at) / RFU DUSP10 (11751237_a_at) / Fold change /veh DUSP10 (11751237_a_at) / RFU ID3 (11757404_x_at) / Fold change /veh ID3 (11757404_x_at) / RFU PLEKHG5 (11737974_s_at) / Fold change /veh PLEKHG5 (11737974_s_at) / RFU LRRC4B (11730491_at) / Fold change /veh LRRC4B (11730491_at) / RFU GIMAP4 (11747438_a_at) / Fold change /veh GIMAP4 (11747438_a_at) / RFU KRT8 (11758183_x_at) / Fold change /veh KRT8 (11758183_x_at) / RFU CNN1 (11734310_a_at) / Fold change /veh CNN1 (11734310_a_at) / RFU VPS37D (11726825_at) / Fold change /veh VPS37D (11726825_at) / RFU C10orf10 (11716522_x_at) / Fold change /veh C10orf10 (11716522_x_at) / RFU KIR2DL2 /// KIR2DL4 /// KIR2DL5A /// KIR2DL5B /// KIR2DS1 /// KIR2DS2 /// KIR2DS3 /// KIR2DS4 /// KIR3DL3 /// KIR3DL3 /// KIR3DS1 (11738374_at) / Fold change /veh KIR2DL2 /// KIR2DL4 /// KIR2DL5A /// KIR2DL5B /// KIR2DS1 /// KIR2DS2 /// KIR2DS3 /// KIR2DS4 /// KIR3DL3 /// KIR3DL3 /// KIR3DS1 (11738374_at) / RFU C1QL1 (11718748_at) / Fold change /veh C1QL1 (11718748_at) / RFU TMPRSS4 (11747572_a_at) / Fold change /veh TMPRSS4 (11747572_a_at) / RFU HAMP (11756126_x_at) / Fold change /veh HAMP (11756126_x_at) / RFU RNFT2 (11725882_a_at) / Fold change /veh RNFT2 (11725882_a_at) / RFU NR4A2 (11747474_a_at) / Fold change /veh NR4A2 (11747474_a_at) / RFU ABCC12 (11746883_a_at) / Fold change /veh ABCC12 (11746883_a_at) / RFU TMEM136 (11760407_x_at) / Fold change /veh TMEM136 (11760407_x_at) / RFU CLDN22 /// WWC2 (11732394_at) / Fold change /veh CLDN22 /// WWC2 (11732394_at) / RFU HLA-DPB1 (11760878_x_at) / Fold change /veh HLA-DPB1 (11760878_x_at) / RFU SPINT1 (11716480_a_at) / Fold change /veh SPINT1 (11716480_a_at) / RFU GAP43 (11754022_s_at) / Fold change /veh GAP43 (11754022_s_at) / RFU A4GNT (11735810_at) / Fold change /veh A4GNT (11735810_at) / RFU PRB3 (11715151_x_at) / Fold change /veh PRB3 (11715151_x_at) / RFU TUBB4B (11761932_at) / Fold change /veh TUBB4B (11761932_at) / RFU CAPN14 (11732068_a_at) / Fold change /veh CAPN14 (11732068_a_at) / RFU TMCC2 (11721928_a_at) / Fold change /veh TMCC2 (11721928_a_at) / RFU IRGQ (11745062_a_at) / Fold change /veh IRGQ (11745062_a_at) / RFU FAM174B (11720279_a_at) / Fold change /veh FAM174B (11720279_a_at) / RFU TMPRSS4 (11748680_a_at) / Fold change /veh TMPRSS4 (11748680_a_at) / RFU FAM212B (11763350_a_at) / Fold change /veh FAM212B (11763350_a_at) / RFU PLEKHG5 (11743358_a_at) / Fold change /veh PLEKHG5 (11743358_a_at) / RFU ZSCAN30 (11745921_a_at) / Fold change /veh ZSCAN30 (11745921_a_at) / RFU CMKLR1 (11741424_a_at) / Fold change /veh CMKLR1 (11741424_a_at) / RFU LOC101060620 /// MAPK8IP1 (11723275_at) / Fold change /veh LOC101060620 /// MAPK8IP1 (11723275_at) / RFU SPTSSB (11747773_x_at) / Fold change /veh SPTSSB (11747773_x_at) / RFU PRSS12 (11739890_at) / Fold change /veh PRSS12 (11739890_at) / RFU BIN1 (11741810_x_at) / Fold change /veh BIN1 (11741810_x_at) / RFU WNT11 (11732464_a_at) / Fold change /veh WNT11 (11732464_a_at) / RFU C10orf10 (11716521_a_at) / Fold change /veh C10orf10 (11716521_a_at) / RFU C5orf56 (11738089_at) / Fold change /veh C5orf56 (11738089_at) / RFU CYB561 (11721691_x_at) / Fold change /veh CYB561 (11721691_x_at) / RFU ANKRD19P (11752326_a_at) / Fold change /veh ANKRD19P (11752326_a_at) / RFU OR2T12 /// OR2T33 /// OR2T8 (11738714_s_at) / Fold change /veh OR2T12 /// OR2T33 /// OR2T8 (11738714_s_at) / RFU VCAN (11748164_a_at) / Fold change /veh VCAN (11748164_a_at) / RFU JSRP1 (11732532_at) / Fold change /veh JSRP1 (11732532_at) / RFU KRTAP10-11 (11738290_x_at) / Fold change /veh KRTAP10-11 (11738290_x_at) / RFU MYO3A (11730013_a_at) / Fold change /veh MYO3A (11730013_a_at) / RFU EBF3 (11725865_a_at) / Fold change /veh EBF3 (11725865_a_at) / RFU CAMK2N1 (11719241_x_at) / Fold change /veh CAMK2N1 (11719241_x_at) / RFU C5orf56 (11738088_a_at) / Fold change /veh C5orf56 (11738088_a_at) / RFU OLFML3 (11715873_a_at) / Fold change /veh OLFML3 (11715873_a_at) / RFU LOC100653217 /// NTM (11731650_a_at) / Fold change /veh LOC100653217 /// NTM (11731650_a_at) / RFU MAPK11 (11762145_a_at) / Fold change /veh MAPK11 (11762145_a_at) / RFU FIZ1 (11724087_x_at) / Fold change /veh FIZ1 (11724087_x_at) / RFU OASL (11726364_x_at) / Fold change /veh OASL (11726364_x_at) / RFU SOX15 (11748057_x_at) / Fold change /veh SOX15 (11748057_x_at) / RFU CD79A (11719716_a_at) / Fold change /veh CD79A (11719716_a_at) / RFU HIST1H1D (11736915_at) / Fold change /veh HIST1H1D (11736915_at) / RFU CASKIN2 (11723855_a_at) / Fold change /veh CASKIN2 (11723855_a_at) / RFU LOC730098 (11760151_x_at) / Fold change /veh LOC730098 (11760151_x_at) / RFU OR4N2 (11742367_at) / Fold change /veh OR4N2 (11742367_at) / RFU PRRT2 (11749266_a_at) / Fold change /veh PRRT2 (11749266_a_at) / RFU SNX32 (11753110_a_at) / Fold change /veh SNX32 (11753110_a_at) / RFU CDHR5 (11726645_a_at) / Fold change /veh CDHR5 (11726645_a_at) / RFU RCAN1 (11760418_a_at) / Fold change /veh RCAN1 (11760418_a_at) / RFU FAM167A (11723789_a_at) / Fold change /veh FAM167A (11723789_a_at) / RFU FAM26E (11764081_at) / Fold change /veh FAM26E (11764081_at) / RFU ISYNA1 (11749810_s_at) / Fold change /veh ISYNA1 (11749810_s_at) / RFU ACY1 (11761880_at) / Fold change /veh ACY1 (11761880_at) / RFU 11764098_at / Fold change /veh 11764098_at / RFU SAMD14 (11745864_x_at) / Fold change /veh SAMD14 (11745864_x_at) / RFU NPB (11741838_a_at) / Fold change /veh NPB (11741838_a_at) / RFU TMPRSS6 (11731388_a_at) / Fold change /veh TMPRSS6 (11731388_a_at) / RFU KRTAP10-2 (11738614_at) / Fold change /veh KRTAP10-2 (11738614_at) / RFU ARHGAP8 /// PRR5-ARHGAP8 (11727945_x_at) / Fold change /veh ARHGAP8 /// PRR5-ARHGAP8 (11727945_x_at) / RFU KRTAP5-7 /// NADSYN1 (11734609_at) / Fold change /veh KRTAP5-7 /// NADSYN1 (11734609_at) / RFU RASL12 (11751679_a_at) / Fold change /veh RASL12 (11751679_a_at) / RFU CDKN2B (11736163_a_at) / Fold change /veh CDKN2B (11736163_a_at) / RFU PRF1 (11729649_at) / Fold change /veh PRF1 (11729649_at) / RFU, ZNF638 /// ZNF638-IT1 / Fold change vs veh, ZNF638 /// ZNF638-IT1 / RFU, PANK3 / Fold change vs veh, PANK3 / RFU, SH3YL1 / Fold change vs veh, SH3YL1 / RFU, ZEB2 / Fold change vs veh, ZEB2 / RFU, NRIP1 / Fold change vs veh, NRIP1 / RFU, PTTG1IP / Fold change vs veh, PTTG1IP / RFU, CAPN2 / Fold change vs veh, CAPN2 / RFU, MED14 / Fold change vs veh, MED14 / RFU, SNORA58 / Fold change vs veh, SNORA58 / RFU, C1orf63 / Fold change vs veh, C1orf63 / RFU, LRRFIP1 / Fold change vs veh, LRRFIP1 / RFU, NDUFAF7 / Fold change vs veh, NDUFAF7 / RFU, SLC12A2 / Fold change vs veh, SLC12A2 / RFU, IBTK / Fold change vs veh, IBTK / RFU, ESF1 / Fold change vs veh, ESF1 / Fold change vs veh, TMEM50B / RFU, TAOK1 / Fold change vs veh, TAOK1 / RFU, ACBD3 / Fold change vs veh, ACBD3 / RFU, TMA16 / Fold change vs veh, TMA16 / RFU, RWDD3 / Fold change vs veh, RWDD3 / RFU, BCAT1 / Fold change vs veh, BCAT1 / RFU, EDEM3 / Fold change vs veh, EDEM3 / RFU, TMEM33 / Fold change vs veh, TMEM33 / RFU, WDR75 / Fold change vs veh, WDR75 / RFU, AHCTF1 / Fold change vs veh, AHCTF1 / RFU, TFRC / Fold change vs veh, TFRC / RFU, ZDHHC17 / Fold change vs veh, ZDHHC17 / RFU, NOM1 / Fold change vs veh, NOM1 / RFU, ARL8B / Fold change vs veh, ARL8B / RFU, ZBTB11 / Fold change vs veh, ZBTB11 / RFU, TAMM41 / Fold change vs veh, TAMM41 / RFU, KIAA1704 /// LOC100996395 / Fold change vs veh, KIAA1704 /// LOC100996395 / RFU, ING1 / Fold change vs veh, ING1 / RFU, TRMT61B / Fold change vs veh, TRMT61B / RFU, FUBP3 / Fold change vs veh, FUBP3 / RFU, TP53 / Fold change vs veh, TP53 / RFU, TNKS2 / Fold change vs veh, TNKS2 / RFU, ZFP14 / Fold change vs veh, ZFP14 / RFU, ACTR2 / Fold change vs veh, ACTR2 / RFU, PPP3R1 / Fold change vs veh, PPP3R1 / RFU, PIK3R1 / Fold change vs veh, PIK3R1 / RFU, HNRNPA1 / Fold change vs veh, HNRNPA1 / RFU, RNF170 / Fold change vs veh, RNF170 / RFU, ZNF28 / Fold change vs veh, ZNF28 / RFU, RNGTT / Fold change vs veh, RNGTT / RFU, OGT / Fold change vs veh, OGT / RFU, BRD1 / Fold change vs veh, BRD1 / RFU, MARS / Fold change vs veh, MARS / RFU, ZNF655 / Fold change vs veh, ZNF655 / RFU, FAHD1 / Fold change vs veh, FAHD1 / RFU, BDP1 / Fold change vs veh, BDP1 / RFU, LRRCC1 / Fold change vs veh, LRRCC1 / RFU, ARID1A / Fold change vs veh, ARID1A / RFU, ZNF146 / Fold change vs veh, ZNF146 / RFU, ZNF330 / Fold change vs veh, ZNF330 / RFU, GPN3 / Fold change vs veh, GPN3 / RFU, C9orf123 / Fold change vs veh, C9orf123 / RFU, N4BP2L2 / Fold change vs veh, N4BP2L2 / RFU, ARFIP1 / Fold change vs veh, ARFIP1 / RFU, FAM179B / Fold change vs veh, FAM179B / RFU, BCL10 / Fold change vs veh, BCL10 / RFU, UHRF1BP1L / Fold change vs veh, UHRF1BP1L / RFU, BET1 / Fold change vs veh, BET1 / RFU, CNOT2 / Fold change vs veh, CNOT2 / RFU, ZNF268 / Fold change vs veh, ZNF268 / Fold change vs veh, ZNF507 / RFU, DGCR2 / Fold change vs veh, DGCR2 / RFU, WDSUB1 / Fold change vs veh, WDSUB1 / Fold change vs veh, HSP90B1 /// MIR3652 / RFU, ADSS / Fold change vs veh, ADSS / RFU, GK / Fold change vs veh, GK / RFU, ZNF148 / Fold change vs veh, ZNF148 / RFU, TAF9 / Fold change vs veh, TAF9 / RFU, SLC1A5 / Fold change vs veh, SLC1A5 / RFU, SLMO2 / Fold change vs veh, SLMO2 / RFU, ABCC4 / Fold change vs veh, ABCC4 / RFU, LOC101060439 /// RAP1B / Fold change vs veh, LOC101060439 /// RAP1B / RFU, RFX7 / Fold change vs veh, RFX7 / RFU, GTPBP10 / Fold change vs veh, GTPBP10 / RFU, CNEP1R1 / Fold change vs veh, CNEP1R1 / RFU, BIVM-ERCC5 /// ERCC5 / Fold change vs veh, BIVM-ERCC5 /// ERCC5 / RFU, ILF3 / Fold change vs veh, ILF3 / RFU 11762660_at / Fold change /veh 11762660_at / RFU VCAN (11757783_s_at) / Fold change /veh VCAN (11757783_s_at) / RFU DDX43 (11728927_at) / Fold change /veh DDX43 (11728927_at) / RFU KRT8 (11758188_x_at) / Fold change /veh KRT8 (11758188_x_at) / RFU NKD1 (11759106_at) / Fold change /veh NKD1 (11759106_at) / RFU SRD5A1 (11742802_a_at) / Fold change /veh SRD5A1 (11742802_a_at) / RFU TPSAB1 /// TPSB2 (11721975_s_at) / Fold change /veh TPSAB1 /// TPSB2 (11721975_s_at) / RFU GSTM3 (11746129_a_at) / Fold change /veh GSTM3 (11746129_a_at) / RFU IL23R (11737362_x_at) / Fold change /veh IL23R (11737362_x_at) / RFU TMEM51 (11727254_a_at) / Fold change /veh TMEM51 (11727254_a_at) / RFU PIWIL2 (11732686_x_at) / Fold change /veh PIWIL2 (11732686_x_at) / RFU ORM1 (11744905_x_at) / Fold change /veh ORM1 (11744905_x_at) / RFU CCDC152 (11743942_at) / Fold change /veh CCDC152 (11743942_at) / RFU ECM1 (11717891_a_at) / Fold change /veh ECM1 (11717891_a_at) / RFU IL23R (11748794_a_at) / Fold change /veh IL23R (11748794_a_at) / RFU TNFAIP8L3 (11732012_x_at) / Fold change /veh TNFAIP8L3 (11732012_x_at) / RFU MBOAT4 (11741988_at) / Fold change /veh MBOAT4 (11741988_at) / RFU 11764193_at / Fold change /veh 11764193_at / RFU TMEM53 (11763286_at) / Fold change /veh TMEM53 (11763286_at) / RFU MAGEB2 (11727129_at) / Fold change /veh MAGEB2 (11727129_at) / RFU TMEM200A (11744735_a_at) / Fold change /veh TMEM200A (11744735_a_at) / RFU CCDC152 (11751479_a_at) / Fold change /veh CCDC152 (11751479_a_at) / RFU FAM211A (11726209_a_at) / Fold change /veh FAM211A (11726209_a_at) / RFU RGS16 (11746705_a_at) / Fold change /veh RGS16 (11746705_a_at) / RFU VCAN (11755009_s_at) / Fold change /veh VCAN (11755009_s_at) / RFU RHOB (11743442_s_at) / Fold change /veh RHOB (11743442_s_at) / RFU RGS16 (11720943_a_at) / Fold change /veh RGS16 (11720943_a_at) / RFU RGS16 (11720944_at) / Fold change /veh RGS16 (11720944_at) / RFU, VPS4B / Fold change vs veh, VPS4B / RFU, CREB1 / Fold change vs veh, CREB1 / RFU, DNAJC13 / Fold change vs veh, DNAJC13 / RFU, GNAQ / Fold change vs veh, GNAQ / RFU, CDK5R1 / Fold change vs veh, CDK5R1 / RFU, ZRANB3 / Fold change vs veh, ZRANB3 / RFU, CUL4A / Fold change vs veh, CUL4A / RFU, CCNY / Fold change vs veh, CCNY / RFU, UFL1 / Fold change vs veh, UFL1 / RFU, COG3 / Fold change vs veh, COG3 / RFU, DIAPH2 / Fold change vs veh, DIAPH2 / RFU, SKA2 / Fold change vs veh, SKA2 / RFU, AFF3 / Fold change vs veh, AFF3 / RFU, LMF1 / Fold change vs veh, LMF1 / RFU, IPO11 / Fold change vs veh, IPO11 / RFU, DFFB / Fold change vs veh, DFFB / RFU, FOXP1 / Fold change vs veh, FOXP1 / RFU, CARD8 / Fold change vs veh, CARD8 / RFU, STRN3 / Fold change vs veh, STRN3 / RFU, ADK / Fold change vs veh, ADK / RFU, RASSF2 / Fold change vs veh, RASSF2 / RFU, WIPF1 / Fold change vs veh, WIPF1 / RFU, LARP1B / Fold change vs veh, LARP1B / RFU, RASA1 / Fold change vs veh, RASA1 / RFU, RB1 / Fold change vs veh, RB1 / RFU, PPFIA1 / Fold change vs veh, PPFIA1 / RFU, MAT2A / Fold change vs veh, MAT2A / RFU, CCT5 / Fold change vs veh, CCT5 / RFU, WDR92 / Fold change vs veh, WDR92 / RFU, CUX1 / Fold change vs veh, CUX1 / RFU, TTC7A / Fold change vs veh, TTC7A / RFU, TMEM135 / Fold change vs veh, TMEM135 / RFU, DEPTOR / Fold change vs veh, DEPTOR / RFU, CPM / Fold change vs veh, CPM / RFU, DNAJB6 / Fold change vs veh, DNAJB6 / RFU, CACNA2D3 / Fold change vs veh, CACNA2D3 / RFU, DTX4 / Fold change vs veh, DTX4 / RFU, TFCP2 / Fold change vs veh, TFCP2 / RFU, GMCL1 /// GMCL1P1 / Fold change vs veh, GMCL1 /// GMCL1P1 / RFU, AEBP2 / Fold change vs veh, AEBP2 / RFU, SNHG1 /// SNORD22 /// SNORD25 /// SNORD26 /// SNORD27 /// SNORD28 /// SNORD29 /// SNORD31 / Fold change vs veh, SNHG1 /// SNORD22 /// SNORD25 /// SNORD26 /// SNORD27 /// SNORD28 /// SNORD29 /// SNORD31 / Fold change (Aza/veh), C12orf56 (ProbeSet 11735607_a_at) / Fold change (ACY-1035/veh), C12orf56 (ProbeSet 11735607_a_at) / Fold change (Aza/veh), FGFR1OP (ProbeSet 11751329_s_at) / Fold change (ACY-1035/veh), FGFR1OP (ProbeSet 11751329_s_at) / Fold change (Aza/veh), VPS36 (ProbeSet 11739960_a_at) / Fold change (ACY-1035/veh), VPS36 (ProbeSet 11739960_a_at) / RFU SYPL1 (11715823_x_at) / Fold change /veh SYPL1 (11715823_x_at) / RFU IGFBP7 (11715501_s_at) / Fold change /veh IGFBP7 (11715501_s_at) / RFU REEP3 (11722064_at) / Fold change /veh REEP3 (11722064_at) / RFU IGLL1 (11728026_x_at) / Fold change /veh IGLL1 (11728026_x_at): dose or concentration left out as unconfirmed
Settings: MV-4-11 cells, 48 hours

Nc1ncn([C@@H]2O[C@H](CO)[C@@H](O)[C@H]2O)c(=O)n1 [azacitidine]
Fold change /veh C5orf56 (11738088_a_at): 0.98
